Where “and” joins values, the source holds several entries; their conditions need not be identical. Equal values may be shown once. Where a name gives a salt, the structure may show the parent alone.
System: patients who met the 1990 ACR criteria for fibromyalgia syndrome
Assay: Example 1: multi-center double-blind, randomized, placebo-controlled study of milnacipran for the treatment of fibromyalgia (888 patients)
Type: in vivo, human
Parameters: Mean Change from Baseline in PFI SF-36 domain score / Mean Change from Baseline in PAIN SF-36 domain score / Mean Change from Baseline in GHP SF-36 domain score / Mean Change from Baseline in ROLP SF-36 domain score: scale not given here
Details: for responders for the treatment of the pain of fibromyalgia (pain composite), % = m/n: observed cases (OC), hydrochloride; for odds ratio of response / number of responders m (pain of fibromyalgia): OC; for Mean Change from Baseline in GHP SF-36 domain score / Mean Change from Baseline in PAIN SF-36 domain score / Mean Change from Baseline in PCS Score / Mean Change from Baseline in PFI SF-36 domain score / Mean Change from Baseline in ROLP SF-36 domain score: Observed Cohort
Procedure: The primary outcome was a composite responder analysis assessing response rate at weeks 14 and 15, and the secondary analysis assessed response rate at weeks 26 and 27.
This was a multi-center, randomized, double-blinded, placebo-controlled three-arm study, which enrolled 888 patients who met the 1990 ACR criteria for fibromyalgia syndrome as well as the more detailed admission criteria outlined in the protocol.
Patients were randomized to receive either placebo, 100 mg/day milnacipran, or 200 mg/day milnacipran in a ratio of a 1:1:2. All randomized medications (placebo and milnacipran) were administered in a split-dose (BID) fashion. The doses were administered in a dose escalation regimen as outlined below:
All patients were scheduled to receive a total of 24 weeks of milnacipran or placebo after the 3 weeks of dose escalation steps, for a total of 27 weeks of milnacipran or placebo exposure.
The primary endpoint of this study was a composite responder analysis implementing analysis of three domains of interest, evaluated at […]. The domains measured were:
1) pain (measured by an electronic diary as a daily recall pain score, calculated to weekly average scores)
2) patient global (measured by the PGIC, 1-7 scale)
3) physical function (measured by the SF-36 PCS).
For the primary analysis, the pain domain score was determined by a calculation that compared the average of treatment weeks 14 and 15 to the two baseline weeks, and treatment weeks 26 and 27 vs. baseline for the secondary analysis. The last observation was carried forward if neither the week 14 nor week 15 (or week 26/27) patient self-reported pain score is available to compare to the baseline value.
A responder was defined as a subject who experienced a greater than 30% reduction in pain from baseline and improvement on the PGIC.
At three months, the percentage of responders was: 35.44% (56/158) in the placebo group; 53.33% (72/135) (p=0.001) in the milnacipran 100 mg/day group; and 55.00% (143/260) (p<0.001) in the milnacipran 200 mg/day group. At six months, the percentage of responders was: 32.86% (46/140) in the placebo group; 49.59% (60/121) (p=0.002) in the milnacipran 100 mg/day group; and 51.74% (119/230) (p<0.001) in the milnacipran 200 mg/day group. See Table 1 for a summary of the results in the Intent-to-Treat Population and Table 2 for a summary of the Last Observation Carried Forward (LOCF), Baseline Observation Carried Forward (BOCF) and study completer (OC) populations. LOCF is an analysis in which observations are carried forward to the last time point for patients who dropped out. The LOCF analysis treats the carried-forward data as observed data at the last time point. BOCF is an analysis that requires the patient remain active in the trial to be evaluated for response. If a patient withdraws from the trial for any reason they are classed as a non-responder irregardless of their pain and global scores at the time of withdrawal.
The following domains were used to evaluate the PCS score: physical function (PFI), role physical (ROLP), bodily pain (PAIN), general health profile (GHP), […] (VIT), social role (SOC), role emotional (ROLE) and mental health index (MHI). The PFI, ROLP, PAIN and GHP domains are positively weighted in the PCS calculation, and the VIT, SOC, ROLE and MHI domains are negatively weighted in the PCS calculation (Normative Value=50, SD=10).

CCN(CC)C(=O)C1(c2ccccc2)CC1CN (racemic) [milnacipran, Z-2-aminomethyl-1-phenyl-N,N-diethylcyclopropanecarboxamide hydrochloride]
physical function in patients with fibromyalgia compared to placebo (in words) (100 mg or 200 mg): surprisingly and effectively improves physical function | responders for the treatment of the pain of fibromyalgia (pain composite), % = m/n (100 mg/day, treatment weeks 14-15 (3 months)): 53.33% and 53.3% | responders for the treatment of the pain of fibromyalgia (pain composite), % = m/n (100 mg/day, treatment weeks 14-15 (3 months), listed as Milnacipran): 53.33% | responders for the treatment of the pain of fibromyalgia (pain composite), % = m/n (100 mg/day, treatment weeks 26-27 (6 months)): 49.59% and 49.6% | responders for the treatment of the pain of fibromyalgia (pain composite), % = m/n (100 mg/day, treatment weeks 26-27 (6 months), listed as Milnacipran): 49.59% | odds ratio of response (100 mg/day, weeks 14-15): 2.10 | number of responders m (pain of fibromyalgia) (100 mg/day, weeks 14-15, n=135): 72 | odds ratio of response (100 mg/day, weeks 26-27): 1.96 | number of responders m (pain of fibromyalgia) (100 mg/day, weeks 26-27, n=121): 60 | Pain Composite responder rate, Sensitivity Analysis II (100 mg, 3 month): 32.% | Pain Composite responder rate, Sensitivity Analysis III (100 mg, 3 month): 32.1% | Pain Composite responder rate, Sensitivity Analysis I (BOCF) (100 mg, 3 month): 32.1% | Individual component responder rate: PGIC (LOCF) (100 mg, 3 month): 54.0% | Individual component responder rate: Pain (LOCF) (100 mg, 3 month): 35.7% | Pain Composite responder rate, Primary Analysis (LOCF) (100 mg, 3 month): 33.5% | Pain Composite responder rate, Sensitivity Analysis II (100 mg, 6 month): 27.2% | Pain Composite responder rate, Sensitivity Analysis III (100 mg, 6 month): 29.5% | Pain Composite responder rate, Sensitivity Analysis I (BOCF) (100 mg, 6 month): 26.8% | Individual component responder rate: PGIC (LOCF) (100 mg, 6 month): 49.6% | Individual component responder rate: Pain (LOCF) (100 mg, 6 month): 35.7% | Pain Composite responder rate, Primary Analysis (LOCF) (100 mg, 6 month): 30.8% | Mean Change from Baseline in GHP SF-36 domain score (100 mg, Tx 3): 5.9 | Mean Change from Baseline in PAIN SF-36 domain score (100 mg, Tx 3): 11.8 | Mean Change from Baseline in PCS Score (100 mg, Tx 3): 3.6 | Mean Change from Baseline in PFI SF-36 domain score (100 mg, Tx 3): 6.4 | Mean Change from Baseline in ROLP SF-36 domain score (100 mg, Tx 3): 12.3 | Mean Change from Baseline in GHP SF-36 domain score (100 mg, Tx 7): 6.3 | Mean Change from Baseline in PAIN SF-36 domain score (100 mg, Tx 7): 15.0 | Mean Change from Baseline in PCS Score (100 mg, Tx 7): 4.6 | Mean Change from Baseline in PFI SF-36 domain score (100 mg, Tx 7): 7.6 | Mean Change from Baseline in ROLP SF-36 domain score (100 mg, Tx 7): 16.4 | Mean Change from Baseline in GHP SF-36 domain score (100 mg, Tx 11): 8.1 | Mean Change from Baseline in PAIN SF-36 domain score (100 mg, Tx 11): 19.4 | Mean Change from Baseline in PCS Score (100 mg, Tx 11): 5.9 | Mean Change from Baseline in PFI SF-36 domain score (100 mg, Tx 11): 10.6 | Mean Change from Baseline in ROLP SF-36 domain score (100 mg, Tx 11): 18.6 | Mean Change from Baseline in GHP SF-36 domain score (100 mg, Tx 15): 7.8 | Mean Change from Baseline in PAIN SF-36 domain score (100 mg, Tx 15): 18.1 | Mean Change from Baseline in PCS Score (100 mg, Tx 15): 6.2 | Mean Change from Baseline in PFI SF-36 domain score (100 mg, Tx 15): 11.4 | Mean Change from Baseline in ROLP SF-36 domain score (100 mg, Tx 15): 19.3 | responders for the treatment of the pain of fibromyalgia (pain composite), % = m/n (200 mg/day, treatment weeks 14-15 (3 months)): 55.0% | responders for the treatment of the pain of fibromyalgia (pain composite), % = m/n (200 mg/day, treatment weeks 14-15 (3 months), listed as Milnacipran): 55.00% | responders for the treatment of the pain of fibromyalgia (pain composite), % = m/n (200 mg/day, treatment weeks 26-27 (6 months)): 51.74% and 51.7% | responders for the treatment of the pain of fibromyalgia (pain composite), % = m/n (200 mg/day, treatment weeks 26-27 (6 months), listed as Milnacipran): 51.74% | odds ratio of response (200 mg/day, weeks 14-15): 2.20 | number of responders m (pain of fibromyalgia) (200 mg/day, weeks 14-15, n=260): 143 | odds ratio of response (200 mg/day, weeks 26-27): 2.20 | number of responders m (pain of fibromyalgia) (200 mg/day, weeks 26-27, n=230): 119 | Pain Composite responder rate, Sensitivity Analysis II (200 mg, 3 month): 32.7% | Pain Composite responder rate, Sensitivity Analysis III (200 mg, 3 month): 32.4% | Pain Composite responder rate, Sensitivity Analysis I (BOCF) (200 mg, 3 month): 32.4% | Individual component responder rate: PGIC (LOCF) (200 mg, 3 month): 50.6% | Individual component responder rate: Pain (LOCF) (200 mg, 3 month): 38.3% | Pain Composite responder rate, Primary Analysis (LOCF) (200 mg, 3 month): 34.9% | Pain Composite responder rate, Sensitivity Analysis II (200 mg, 6 month): 28.6% | Pain Composite responder rate, Sensitivity Analysis III (200 mg, 6 month): 29.9% | Pain Composite responder rate, Sensitivity Analysis I (BOCF) (200 mg, 6 month): 27.0% | Individual component responder rate: PGIC (LOCF) (200 mg, 6 month): 49.9% | Individual component responder rate: Pain (LOCF) (200 mg, 6 month): 35.4% | Pain Composite responder rate, Primary Analysis (LOCF) (200 mg, 6 month): 32.2% | Mean Change from Baseline in GHP SF-36 domain score (200 mg, Tx 3): 6.0 | Mean Change from Baseline in PAIN SF-36 domain score (200 mg, Tx 3): 12.5 | Mean Change from Baseline in PCS Score (200 mg, Tx 3): 3.6 | Mean Change from Baseline in PFI SF-36 domain score (200 mg, Tx 3): 8.2 | Mean Change from Baseline in ROLP SF-36 domain score (200 mg, Tx 3): 13.0 | Mean Change from Baseline in GHP SF-36 domain score (200 mg, Tx 7): 8.5 | Mean Change from Baseline in PAIN SF-36 domain score (200 mg, Tx 7): 18.6 | Mean Change from Baseline in PCS Score (200 mg, Tx 7): 5.9 | Mean Change from Baseline in PFI SF-36 domain score (200 mg, Tx 7): 11.0 | Mean Change from Baseline in ROLP SF-36 domain score (200 mg, Tx 7): 19.0 | Mean Change from Baseline in GHP SF-36 domain score (200 mg, Tx 11): 7.7 | Mean Change from Baseline in PAIN SF-36 domain score (200 mg, Tx 11): 16.8 | Mean Change from Baseline in PCS Score (200 mg, Tx 11): 5.6 | Mean Change from Baseline in PFI SF-36 domain score (200 mg, Tx 11): 10.7 | Mean Change from Baseline in ROLP SF-36 domain score (200 mg, Tx 11): 18.4 | Mean Change from Baseline in GHP SF-36 domain score (200 mg, Tx 15): 8.2 | Mean Change from Baseline in PAIN SF-36 domain score (200 mg, Tx 15): 19.3 | Mean Change from Baseline in PCS Score (200 mg, Tx 15): 6.1 | Mean Change from Baseline in PFI SF-36 domain score (200 mg, Tx 15): 11.9 | Mean Change from Baseline in ROLP SF-36 domain score (200 mg, Tx 15): 19.9

Reference: patent publication US20080293820A1, “METHODS FOR IMPROVING PHYSICAL FUNCTION IN FIBROMYALGIA” (Cypress Bioscience, Inc., priority 2007, published 2008)
